Entries after “also recorded” stand apart in the source; their conditions may differ.
Legend:
[1] = test system: UUO rats; assay: Unilateral Ureteral Obstruction (UUO) rat model; format: in vivo, Sprague-Dawley rats
Description: The effect of treatment with Compound I was studied on the Unilateral Ureteral Obstruction (UUO) model, a model of kidney interstitial fibrosis. Sprague-Dawley rats were used at 6-8 weeks of age and 200-250 g in body weight. Rats were sedated by general anesthesia (isoflurane), then an incision was made in the left side of the back, and the left proximal ureter was exposed and triple-ligated. Sham-operated rats had their ureter exposed but not ligated. Rats were treated by oral gavage from day 1 to 13. Rats were sacrificed on day 14.

[2] = test system: human proximal tubule epithelial cells (HK-2); assay: TGF-β induced epithelial to mesenchymal transition (EMT), real-time PCR; format: cell-based
Description: Further analysis was undertaken to determine the effect of Compound I on EMT. The effect of Compound I on TGF-β induced EMT was analyzed on human proximal tubule epithelial cells (HK-2). To assess the progression of EMT, the pro-epithelial marker E-cadherin and the mesenchymal/pro-fibrotic markers CTGF and collagen 1 were assayed by quantitative real-time PCR. To examine the prospective efficacy of Compound I in inhibiting TGF-β-induced EMT, we first verified the ability of TGF-β to induce EMT in HK-2 cells.

[3] = test system: LPS-stimulated RAW264.7 (macrophage-like) cells; assay: IL-12 production on LPS-stimulated RAW264.7 cells (ELISA); format: cell-based; conditions: in the presence of LPS
Description: The effect of selected compounds on IL-12 production was undertaken in RAW264.7 (macrophage-like) cells. RAW264.7 cells were cultured with 100 ng/mL of LPS in presence or absence of compounds for 21 h in a humidified atmosphere of 95% air-5% carbon dioxide at 37° C. IL-12 concentration in the culture medium was measured using the IL-12 ELISA according to the manufacturer (BD Biosciences) recommendations.

[4] = test system: 5/6-nephrectomized (NX) rats; assay: 5/6-nephrectomy model of kidney fibrosis; format: in vivo, Wistar rats
Description: Male 6-week old Wistar rats were subjected to […] (5/6-NX) or sham operations. Under ketamine anesthesia (60 to 100 mg/kg, i.p.), two-thirds of the left kidney was removed on day 0 followed by the right total nephrectomy on day 7. Sham operated rats underwent exposition of the kidneys and removal of the perirenal fat. Animals that underwent the sham operation were given vehicle (saline) and were used as controls. 5/6-NX animals were treated by gastric gavage with the vehicle or Compound I administered daily at 10 and 50 mg/kg, respectively. Animals were treated from day 1 to 132 and were sacrificed at day 133. To evaluate renal function, creatinine clearance was measured at day 21 and every subsequent three weeks. Glomerular filtration rate (GFR) was then calculated. Serum urea, serum creatinine and kidney CTGF along with histological lesion score were also evaluated.

[5] = test system: Normal Human Dermal Fibroblasts (NHDF); assay: TGF-β induced CTGF production on normal human dermal fibroblasts (ELISA); format: cell-based; conditions: 10 ng/mL TGF-β, 48 h
Description: The effect of selected compounds on CTGF production was undertaken in NHDF. Cells were cultured in DMEM (0.5% FBS) with or without 10 ng/mL of TGF-β for 48 h in a humidified atmosphere of 95% air-5% carbon dioxide at 37° C. CTGF production in the culture medium was measured using the CTGF ELISA according to the manufacturer (Prepotech) recommendations. Table 3 represents the effect of selected representative compounds on the inhibition of TGF-βCTGF production in normal human dermal fibroblast (NHDF).

[6] = test system: cyclophosphamide immunosuppressed mice; assay: Chemoprotection in cyclophosphamide immunosuppressed mice; format: in vivo, C57BL/6 mice; conditions: 50 mg/kg oral day -3, -2, -1, cyclophosphamide 250 mg/kg iv day 0; for red bone marrow cell count: day +5 (FIG. 6); for white bone marrow cell count: day +5 (FIG. 7)
Description: Female C57BL/6 mice, 6 to 8 week old, were immunosuppressed by treatment with 250 mg/kg of cyclophosphamide administered intravenously at day 0. To examine the immunoprotective effect of Compound I and Compound II, mice were pre-treated orally at day −3, −2 and −1 with 50 mg/kg of each compound. Mice were sacrificed at day +5 by cardiac puncture and cervical dislocation. Then, a gross pathological observation of the femurs (as a source of bone marrow cells) was recorded. After the sacrifice, tissues were crushed in PBS buffer and cells were counted on a hemacytometer.

[7] = test system: doxorubicin-induced nephrotoxicity mouse model; assay: Renal protection in doxorubicin-induced nephrotoxicity model; format: in vivo, C57BL/6 mice; conditions: for serum albumin: oral prophylactic treatment day -3 to 10, doxorubicin 10 mg/kg iv day 0, day 11 (FIG. 2)
Description: C57BL/6 mice (6 to 10 week old) were treated with compounds prophylacticly from day −3 to day 10. Nephrotoxicity was induced by an intravenous injection of 10 mg/kg of doxorubicin at day 0. Serum albumin was monitored at day 11.

[8] = oral treatment, mRNA, dose-response
[9] = Compound alone, normal HK-2 cells

Which results are given for CCCCCCCCC(Oc1ccc(C(=O)CCCCCCC)cc1)C(=O)[O-].[Na+] (racemic) [Compound I, Sodium (RS)-2-[4-Octanoylphenoxy]decanoate]?
kidney MCP-1 ([1]; 50 mg/kg (FIG. 19)): significantly reduced; serum albumin ([1]; oral 10 and 50 mg/kg, day 1 to 13 (FIG. 18)): prevented; TGF-β expression in the kidney ([1]; oral treatment, mRNA): reduced TGF-β expression; expression of CTGF in the kidney [1, 8]: significant dose-response inhibition; expression of collagen 1 in the kidney [1, 8]: significant dose-response inhibition; basal expression of CTGF [2, 9]: downregulate basal expression; basal expression of collagen 1 [2, 9]: downregulate basal expression; E-cadherin transcript expression ([2]; TGF-β induced EMT cells (FIG. 20)): upregulation of E-cadherin; CTGF transcript expression ([2]; TGF-β induced EMT cells (FIG. 21)): downregulation; collagen 1 transcript expression ([2]; TGF-β induced EMT cells (FIG. 22)): downregulation; IL-12 production under inflammatory conditions [3]: increases IL-12 production in vitro (RAW.264 cells) only when inflammation is present; urinary excretion of MCP-1 ([4]; 10 mg/kg, day 21 to 105 (FIG. 13)): markedly reduced; also recorded: significantly decreased (from day 84); proteinuria ([4]; 10 mg/kg, day 63 and day 84 (FIG. 10)): reduction of proteinuria; also recorded: reduces proteinuria; serum urea ([4]; 10 and 50 mg/kg oral, day 1 to day 132 (FIG. 11)): decreased serum urea; GFR expressed as percent of improvement ([4]; 10 and 50 mg/kg oral, day 84 and day 105 (FIG. 9)): improvement of GFR at day 84 and day 105; GFR expressed as percent of improvement (renal functions) ([4]; 10 and 50 mg/kg oral, day 126 (FIG. 9)): deteriorated but to a lesser extent than that observed in the non-treated animals; serum creatinine ([4]; 10 and 50 mg/kg, day 126 (FIG. 12)): decreased serum creatinine; interstitial and glomerular fibrosis/sclerosis (histology) ([4]; 10 or 50 mg/kg (FIG. 15)): reduction of interstitial and glomerular fibrosis/sclerosis; CTGF expression in the remnant kidney (real-time PCR) ([4]; oral 10 mg/kg): decreases significantly; TGF-β expression in the remnant kidney (real-time PCR) ([4]; oral 10 mg/kg): decreases significantly; collagen 1 expression in the remnant kidney (real-time PCR) ([4]; oral 10 mg/kg): decreases significantly; α-SMA expression in the remnant kidney (real-time PCR) ([4]; oral 10 mg/kg): decreases significantly; kidney CTGF expression (Northern blot) ([4]; oral 10 mg/kg (FIG. 16)): reduction of connective tissue growth factor (CTGF) expression; need for Ringer's lactate solution over the period of treatment ([4]; oral 50 mg/kg): did not require Ringer's lactate solution; survival rate ([4]; oral 10 and 50 mg/kg (FIG. 17)): increases the survival rate; kidney IL-12p40 level ([4]; oral 10 or 50 mg/kg, relative to untreated 5/6-NX group (FIG. 14)): significant (p=0.04 at 10 mg/kg) increase in IL-12p40; GFR ([4]; oral, day 126, p=0.08 (FIG. 8)): improvement of GFR; inhibition at 7.5 µM ([5]; 7.5 μM): 41%; red bone marrow cell count [6]: significant increase in red bone marrow cell count; white bone marrow cell count [6]: increase in white bone marrow cell count; histological micrographs of doxorubicin-induced lesions ([7]; FIG. 4): protects the kidney against doxorubicin toxicity; serum albumin [7]: inhibits the decrease of serum albumin; serum CTGF ([7]; oral treatment, p<0.01 (FIG. 5)): significant inhibition of CTGF production in serum; histological kidney lesions score ([7]; prophylactic treatment, day 11, glomerular and tubular level (FIG. 3)): reduces the kidney lesions at the glomerular and tubular level

Which inhibition at 62.5 µM ([5]; 62.5 μM) does the source give for CCCCCCCC(=O)c1ccc2c(c1)CC(C(=O)O)C2 (racemic) [Compound III, Sodium (RS)-5-Octanoylindane-2-carboxylate] here?
The inhibition at 62.5 µM was 45%.

For CCCCCCCCC(Oc1ccc(C(=O)CCC)cc1)C(=O)[O-].[Na+] (racemic) [Compound IX, Sodium (RS)-2-[4-Butyrylphenoxy]decanoate], which melting point is on record?
Its melting point is 262 to 278 °C.

Which melting point does the source give for CCCCCCCC(=O)c1ccc(OC(CCCCCC)C(=O)[O-])cc1.[Na+] (racemic) [Compound VIII, Sodium (RS)-2-[4-Octanoylphenoxy]octanoate] here?
The melting point was 165 to 170 °C.

With CCCCCCCCC(Oc1ccc(C(=O)CCCCC)cc1)C(=O)[O-].[Na+] (racemic) [Compound X, Sodium (RS)-2-[4-Hexanoylphenoxy]decanoate] as the compound, how does the melting point read?
Its melting point is 275 to 280 °C.

Which inhibition at 100 µM ([5]; 100 μM) does the source give for CCCCCCCC(=O)c1cccc2c1CC(C(=O)O)C2 (racemic) [Compound XXVI, Sodium (RS)-4-Octanoylindane-2-carboxylate] here?
The inhibition at 100 µM was 59%.

With CCCCCCCC(=O)c1cccc(C(=O)[O-])c1.[Na+] [Compound II, Sodium 3-Octanoylbenzoate] as the compound, how does the “red bone marrow cell count” value [6] read?
Its value is “significant increase in red bone marrow cell count”.

What about the “white bone marrow cell count” value [6] of the same compound?
The value was “increase in white bone marrow cell count”.

What about the serum albumin [7] of the same compound?
The serum albumin was “inhibits the decrease of serum albumin”.
